Legend:
ZIP9 = ZIP9 protein immunofluorescence after siRNA silencing; type: cell-based, rat; conditions: ZIP9-siRNA-treated 93RS2 cells; n = 30, means ± SEM
Description: For visualization by immunofluorescence, the medium containing the primary antibody was replaced with PBS containing 1% BSA, 0.3% Triton X-100, and the secondary antibody (goat anti-rabbit IgG diluted at 1:500 in 2% FCS, 0.1 Triton X-100 in PBS) labeled with AlexaFluor 488 (Life Technologies, Darmstadt, Germany). This medium was removed by aspiration after 1 h at room temperature and cells were washed in PBS 3 times. All incubation steps with UV-sensitive reagents were carried out in the dark. An inverse Olympus IX81 microscope equipped with the corresponding fluorescence system (Olympus, Hamburg, Germany) was used to acquire images.
Fluorescence was measured according to the instructions of the ImageJ software program (freely available at http://rsbweb.nih.gov/ij/, accessed on 23 December 2021) according to the protocol provided (http://www.slu.se/PageFiles/388774/Pacho%20ImageJ¬¬%20-measuring-cell-fluo¬rescence.pdf, accessed on 23 December 2021). Only green fluorescence was considered. The fluorescence of 3 × 25 cells closest to the diagonals of photomicrographs from 3 independent experiments was considered for statistical analysis. […]
A total of 6 × 10^4 93RS2 cells were cultured in 2-cm wells of a 6-well plate for 24 h. […] The concentration of the extracted mRNA was quantified by the NanodropTM One spectrophotometer (Thermo Fisher Scientific, Schwerte, Germany). […]

ZIP9 mRNA = assay: RT-PCR of ZIP9 mRNA after siRNA silencing; type: cell-based, rat; conditions: ZIP9-siRNA-treated 93RS2 cells
Description: A total of 6 × 10^4 93RS2 cells were cultured in 2-cm wells of a 6-well plate for 24 h. Thereafter, cells were treated for 48 h either with ZIP9-specific siRNA (ZIP9-siRNA; 5′GGAUUAAGUAAGAGCAGUAtt3′ and 5′UACUGCUCUUACUUAAUCCta3′) to silence ZIP9 expression or with an appropriate negative control siRNA (nc-siRNA), as described previously. ZIP9-siRNA and nc-siRNA were part of the kit Silencer® Select Pre-designed siRNA, provided by Invitrogen (Thermo Fisher Scientific, Schwerte, Germany). After the siRNA treatment, RNeasy® Mini Kit (Qiagen GmbH, Hilden, Germany) was used to isolate mRNA. The concentration of the extracted mRNA was quantified by the NanodropTM One spectrophotometer (Thermo Fisher Scientific, Schwerte, Germany). Samples were measured in duplicate and the average values were used.
RT-PCR was applied in order to assess the success of silencing ZIP9 expression by siRNA. mRNA that had been isolated from cells treated with either nc-siRNA or ZIP9-specific siRNA was processed to cDNA using the Reverse Transcription System (Promega GmbH, Mannheim, Germany) according to the protocol of the provider. A total of 1 µg cDNA, quantified by the NanodropTM One spectrophotometer, was used in the PCR-Master-Mix ready-to-load (Bio&SELL GmbH, Feucht, Germany) to detect ZIP9-specific cDNA. […]

[1] = system: androgen binding site of ZIP9 on 93RS2 cells; assay: Cell-surface labeling with testosterone-BSA-FITC (displacement); conditions: 20 min; for labeling of 93RS2 cells by fluorescent conjugate: 5 µM, room temperature, no competitor, ZIP9 expressed
Description: Cells were cultured in a humidified incubator (37 °C, 5% CO2) in 1:1 DMEM:Ham’s F-12 medium with L-glutamine supplemented with 10% (v/v) fetal bovine serum (FBS) and 1% (v/v) penicillin/streptomycin. The medium was replaced every two days.
A total of 93 RS2 cells were cultured at a density of 5 × 10^3 cells per well in 24-well plates as described above. After reaching about 80% confluence, the cells were treated with either 10 nM testosterone or 1 µM of each of the peptides for 1 h. Both peptide-treated cells and controls were also treated with ethanol vehicle at the same concentration as other plates of cells treated with testosterone dissolved in ethanol. […] After incubation for an additional 20 min at room temperature, the medium was aspirated and cells were fixed in 400 µL ice-cold methanol containing 20 ng of 4,6-diamino-2-phenylindole (DAPI) at room temperature. This solution was aspirated after 15 min and cells were washed with 700 μL PBS. Cell imaging was carried out in 400 µL PBS using an inverse Olympus IX81 microscope (Olympus, Hamburg, Germany).
In order to account for non-specific binding, cells were incubated for 20 min with 5 µM BSA-FITC (lacking the testosterone moiety) diluted in Tris-Buffer (pH 7.2) at room temperature. After washing twice with PBS and fixing in absolute methanol containing DAPI for 15 min, images were obtained as described above.

[2] = system: Erk1/2 phosphorylation (via ZIP9) in 93RS2 cells; assay: Western blot of phospho-Erk1/2 in 93RS2 Sertoli cells; type: cell-based, rat
Description: (§1) The medium was replaced every two days.
(§2) A total of 1 × 10^5 93RS2 cells were grown in 10-cm culture dishes as described above. Cells were then incubated for 24 h with 1% FBS before treatment with various concentrations of the peptides dissolved in medium or testosterone dissolved in ethanol; equal amounts of ethanol were also added to the peptide-treated cells and to control incubations. […] After centrifugation of the lysates at 4 °C for 10 min at 13,000× g, the protein concentration in the supernatants was determined using a bicinchoninic acid (BCA) protein assay reagent kit (Pierce, Rockford, IL, USA) with inclusion of the lysis buffer in the standard curve.
(§3) For Western blotting, 10 µg of protein from cell lysates was separated by SDS-PAGE on slab gels containing 10% acrylamide and 0.3% N,N′-methylene-bis-acrylamide. […] The resulting chemiluminescence was recorded by exposure to film, which was analyzed with the software program ImageJ (freely available at http://rsbweb.nih.gov/ij/ (accessed on 31 December 2021)). Loading differences in the various Western blots were corrected by taking into consideration the optical density of bands corresponding to unphosphorylated Erk1/2 bands or total actin detected in Western blots that were run in parallel. […]

[3] = system: CREB/ATF-1 phosphorylation in 93RS2 cells; assay: Immunofluorescence of phospho-CREB/phospho-ATF-1 in 93RS2 cells; type: cell-based, rat; conditions: 10 nM testosterone or 10 µM peptide, 30 min
Description: as §1
(§4) Each chamber of 4-chamber slides was plated with 1 × 10^4 93RS2 cells and cultured as described above to approximately 80% confluence. Incubation was then carried out with either 10 nM testosterone or 10 µM of each of the peptides or with vehicle only (control). The medium was removed by aspiration after 30 min, and cells were fixed for 15 min in absolute methanol containing DAPI (4′,6-diamidino-2-phenylindole). After aspirating the fixative, cells were treated with blocking solution (3% BSA and 0.3% Triton X-100 in PBS) for 1 h. […]
(§5) For visualization by immunofluorescence, the medium containing the primary antibody was replaced with PBS containing 1% BSA, 0.3% Triton X-100, and the secondary antibody (goat anti-rabbit IgG diluted at 1:500 in 2% FCS, 0.1 Triton X-100 in PBS) labeled with AlexaFluor 488 (Life Technologies, Darmstadt, Germany). […] An inverse Olympus IX81 microscope equipped with the corresponding fluorescence system (Olympus, Hamburg, Germany) was used to acquire images.
(§6) Fluorescence was measured according to the instructions of the ImageJ software program (freely available at http://rsbweb.nih.gov/ij/, accessed on 23 December 2021) according to the protocol provided (http://www.slu.se/PageFiles/388774/Pacho%20ImageJ¬¬%20-measuring-cell-fluo¬rescence.pdf, accessed on 23 December 2021). Only green fluorescence was considered. […]

[4] = system: Erk1/2 phosphorylation in 93RS2 cells; assay: Immunofluorescence of phospho-Erk1/2 in 93RS2 cells; type: cell-based, rat; conditions: 10 nM testosterone or 10 µM peptide, 30 min, n = 3 × 25
Description: as §1, §4, §5, §6

claudin-1 in 93RS2 cells = assay: Immunofluorescence of claudin-1 in 93RS2 cells; type: cell-based, rat; conditions: 10 nM testosterone or 10 µM peptide, 24 h
[5] = system: total Erk1/2 in 93RS2 cells; assay: Expression of total Erk1/2 in 93RS2 lysates; type: cell-based, rat; conditions: lysates of treated 93RS2 cells; data not shown
Description: as §2, with “incubations. After 30 min of incubation the medium was removed by aspiration, and cells were washed twice with ice-cold PBS (without Ca^2+ or Mg^2+; Thermo Fisher Scientific, Darmstadt, Germany) and then lysed in 400 µL of a commercially available cell lysis buffer (Cell Signaling Technology, Frankfurt, Germany) according to the protocol of the provider.” for “incubations.”
For Western blotting, 10 µg of protein from cell lysates was separated by SDS-PAGE on slab gels containing 10% acrylamide and 0.3% N,N′-methylene-bis-acrylamide. […] The resulting chemiluminescence was recorded by exposure to film, which was analyzed with the software program ImageJ (freely available at http://rsbweb.nih.gov/ij/ (accessed on 31 December 2021)). […]

[6] = system: claudin-1 and claudin-5 expression in rodent Sertoli cells; parameters: method as in PMID 27164415, PMID 12851029, PMID 20403878, doi:10.1093/biolreprod/83.s1.109; conditions: ref [6],[29],[34],[35]; cited from earlier work
claudin-5 in 93RS2 cells = assay: Immunofluorescence of claudin-5 in 93RS2 cells; type: cell-based, rat; conditions: 10 nM testosterone or 10 µM peptide, 24 h
[7] = system: CREB/ATF-1 phosphorylation (via ZIP9) in 93RS2 cells; assay: Western blot of phospho-CREB/phospho-ATF-1 in 93RS2 Sertoli cells; type: cell-based, rat
Description: as §1
as §2, with “incubations. After 30 min of incubation the medium was removed by aspiration, and cells were washed twice with ice-cold PBS (without Ca^2+ or Mg^2+; Thermo Fisher Scientific, Darmstadt, Germany) and then lysed in 400 µL of a commercially available cell lysis buffer (Cell Signaling Technology, Frankfurt, Germany) according to the protocol of the provider. Immediately before use, […], 1× protease inhibitor cocktail (Roche, Mannheim, Germany), and 2 µg/mL pepstatin were added to the lysis buffer. All lysis steps were carried out on ice.” for “incubations.”
as §3
Data were analyzed by GraphPad Prism4 software and by applying either the unpaired t-test with Welch’s corrections or one-way ANOVA with repeated measures and Dunnett´s comparison of all data to the control. […]

[8] = system: ZO-1 expression in 93RS2 cells; assay: Immunofluorescence of ZO-1 in 93RS2 cells; type: cell-based, rat; conditions: 10 nM testosterone or 10 µM peptide, 24 h
[9] = system: 93RS2 Sertoli cells (tight junction formation); assay: Transepithelial electrical resistance (TER) across 93RS2 monolayers; type: cell-based, rat; conditions: ZIP9-siRNA; 10 nM testosterone or 10 µM peptides; up to 72 h
Description: as §1
A total of 3 × 10^4 cells were added to 0.4-µm pore ThinCertsTM (Greiner Bio-one GmbH, Frickenhausen, Germany) arranged within 1-cm wells of a 24-well plate. Cells were cultured for 24 h. Stimulation was then carried out with either testosterone or peptides at concentrations of 0.1, 1, 10, or 100 nM (testosterone) or 0.1, 1, 10, or 100 µM (peptides). Control incubations received ethanol vehicle only. TER was determined after 0, 24, 48, and 72 h, with the first measurement being made immediately after addition of testosterone or peptides. Stimulants remained in the cell medium for the entire duration of the experiment, and during this time the medium was not renewed. A Millicell ERS-2 epithelial Volt-Ohm Meter (Merck Millipore, Darmstadt, Germany) was used to measure TER. Each experiment was repeated three times. Similar experiments were carried out after silencing expression of ZIP9 by siRNA.
Data were analyzed by GraphPad Prism4 software and by applying either the unpaired t-test with Welch’s corrections or one-way ANOVA with repeated measures and Dunnett´s comparison of all data to the control. Significance was accepted at p ≤ 0.05.

[10] = 30 min, T 0.1-100 nM, peptides 0.1-100 µM, Western blot

## 5′GGAUUAAGUAAGAGCAGUAtt3′ and 5′UACUGCUCUUACUUAAUCCta3′ (chain 1 GGAUUAAGUAAGAGCAGUATT; chain 2 UACUGCUCUUACUUAAUCCTA; siRNA; chemistry not fully specified) [ZIP9-siRNA, ZIP9-specific siRNA to silence ZIP9 expression]
ZIP9
  ZIP9-specific immunofluorescence remaining vs control conditions: 7.93 ± 1.1%
ZIP9 mRNA
  presence of ZIP9-specific mRNA/cDNA vs nc-siRNA: greatly reduced

## BSA-FITC: BSA-FITC (lacking the testosterone moiety)
[1]
  labeling of 93RS2 cells by fluorescent conjugate: Relatively low signals of green fluorescence

## C[C@]12CC[C@H]3[C@@H](CCC4=CC(=O)CC[C@@]43C)[C@@H]1CC[C@@H]2O [testosterone]
[2]; [10]
  stimulation of Erk1/2 phosphorylation, in words: stimulated in a concentration-dependent manner the phosphorylation of Erk1/2
[2]; Rattus norvegicus, 0.5 h, read-out: EC50 for stimulation of Erk1/2 phosphorylation (approximate, Discussion)
  EC50: ~0.5 nM
[3]; ZIP9-siRNA-treated cells
  phosphorylation of CREB/ATF-1 by immunofluorescence, ZIP9 silenced: complete loss of the stimulatory effect
[3]; nc-siRNA-treated cells
  phosphorylation of CREB/ATF-1 within nuclei by immunofluorescence, ZIP9 expressed: stimulated phosphorylation of the transcription factors within the nuclei
[4]; ZIP9-siRNA-treated cells
  phosphorylation of Erk1/2 by immunofluorescence, ZIP9 silenced: abolished the stimulation of Erk1/2 phosphorylation
[4]; nc-siRNA-treated cells
  phosphorylation of Erk1/2 by immunofluorescence, ZIP9 expressed: triggered the phosphorylation of Erk1/2
claudin-1 in 93RS2 cells; ZIP9-siRNA
  claudin-1 distribution, ZIP9 silenced: This re-distribution was not observed
claudin-1 in 93RS2 cells; nc-siRNA
  claudin-1 distribution, ZIP9 expressed: triggered re-distribution of claudin-1 from the cytosol to the membranes or to the nuclei
  claudin-1 expression level: do not seem to influence the expression level of claudin-1
[5]
  effect on expression of total Erk1/2: without affecting the expression of the enzyme protein
[6]
  claudin-1 and claudin-5 expression: stimulate claudin-1 and claudin-5 expression
claudin-5 in 93RS2 cells; ZIP9-siRNA
  claudin-5 expression and localization, ZIP9 silenced: Only basal levels of Claudin-5 are detected
claudin-5 in 93RS2 cells; nc-siRNA
  claudin-5 expression, ZIP9 expressed: stimulated the expression of claudin-5
[7]; [10]
  stimulation of CREB/ATF-1 phosphorylation, in words: stimulate the phosphorylation of the transcription factors CREB and ATF-1
[7]; Rattus norvegicus, 0.5 h, read-out: EC50 for CREB and ATF-1 phosphorylation (approximate, Discussion)
  EC50: ~0.5 nM
[7]; testosterone (Discussion)
  concentration of maximum effect on CREB/ATF-1 phosphorylation: 10 nM
[8]; ZIP9-siRNA
  ZO-1 expression, ZIP9 silenced: did not respond
[8]; nc-siRNA
  ZO-1 expression, ZIP9 expressed: stimulated the expression of zona occludens (ZO-1)
[9]
  TER increase, ZIP9 silenced: failed to stimulate TER increase

## Testosterone 3-(O-carboxymethyl)oxime:BSA-fluorescein isothiocyanate [T-BSA-FITC]
[1]
  labeling of 93RS2 cells by fluorescent conjugate: uniform green labeling of the extracellular surface of the cells
[1]; ZIP9-siRNA-treated cells, 5 µM T-BSA-FITC
  labeling of cell membranes by testosterone-BSA-FITC, ZIP9 silenced: completely prevented

Reference: publication PMC8773409, “Tetrapeptides Modelled to the Androgen Binding Site of ZIP9 Stimulate Expression of Tight Junction Proteins and Tight Junction Formation in Sertoli Cells” (Biology, 2021)
